In brackets after ≈: the same amount, converted by molar mass.
Experiments:
Format in all cases: functional
[1] = tested on: Pseudomonas aeruginosa; test: Antibacterial activity against VIM-1 producing Pseudomonas aeruginosa clone D2 isolate VA-06X-16 by Etest method in presence of Tazobactam
[2] = tested on: Pseudomonas aeruginosa; test: Antibacterial activity against VIM-1 producing Pseudomonas aeruginosa clone D1 isolate VA-06X-63 by Etest method
[3] = tested on: Pseudomonas aeruginosa; test: Antibacterial activity against VIM-1 producing Pseudomonas aeruginosa clone D3 isolate VA-06X-65 by Etest method
[4] = tested on: Pseudomonas aeruginosa; test: Antibacterial activity against VIM-2 producing Pseudomonas aeruginosa clone B2 isolate VA-06X-38 by Etest method in presence of Tazobactam
[5] = tested on: Pseudomonas aeruginosa; test: Antibacterial activity against IMP-13 producing Pseudomonas aeruginosa clone C2 isolate NA-14X-02 by Etest method in presence of Tazobactam
[6] = tested on: Pseudomonas aeruginosa; test: Antibacterial activity against VIM-1 producing Pseudomonas aeruginosa clone F isolate RM-11X-09 by Etest method
[7] = tested on: Pseudomonas aeruginosa; test: Antibacterial activity against IMP-13 producing Pseudomonas aeruginosa clone C2 isolate NA-14X-02 by Etest method
[8] = tested on: Pseudomonas aeruginosa; test: Antibacterial activity against VIM-2 producing Pseudomonas aeruginosa clone B2 isolate VA-06X-20 by Etest method in presence of Tazobactam
[9] = tested on: Pseudomonas putida; test: Antibacterial activity against VIM-1 producing Pseudomonas putida isolate RM-11X-11 by Etest method
[10] = tested on: Pseudomonas aeruginosa; test: Antibacterial activity against VIM-1 producing Pseudomonas aeruginosa clone A3 isolate NA-14X-34 by Etest method in presence of Tazobactam
[11] = tested on: Pseudomonas putida; test: Antibacterial activity against VIM-1 producing Pseudomonas putida isolate RM-11X-11 by Etest method in presence of Tazobactam
[12] = tested on: Pseudomonas aeruginosa; test: Antibacterial activity against IMP-13 producing Pseudomonas aeruginosa clone C2 isolate NA-14X-11 by Etest method in presence of Tazobactam
[13] = tested on: Pseudomonas aeruginosa; test: Antibacterial activity against VIM-1 producing Pseudomonas aeruginosa clone A2 isolate NA-14X-21 by Etest method
[14] = tested on: Pseudomonas aeruginosa; test: Antibacterial activity against VIM-1 producing Pseudomonas aeruginosa clone A3 isolate FG-17X-08 by Etest method
[15] = tested on: Pseudomonas aeruginosa; test: Antibacterial activity against IMP-13 producing Pseudomonas aeruginosa clone C2 isolate NA-14X-10 by Etest method
[16] = tested on: Pseudomonas aeruginosa; test: Antibacterial activity against VIM-1 producing Pseudomonas aeruginosa clone D2 isolate VA-06X-17 by Etest method in presence of Tazobactam
[17] = tested on: Pseudomonas aeruginosa; test: Antibacterial activity against VIM-1 producing Pseudomonas aeruginosa clone A2 isolate NA-14X-26 by Etest method in presence of Tazobactam
[18] = tested on: Enterobacter cloacae; test: Antibacterial activity against VIM-1 producing Enterobacter cloacae isolate TO-16X-51 by Etest method
[19] = tested on: Pseudomonas aeruginosa; test: Antibacterial activity against IMP-13 producing Pseudomonas aeruginosa clone C1 isolate AV-13X-28 by Etest method
[20] = tested on: Pseudomonas aeruginosa; test: Antibacterial activity against IMP-13 producing Pseudomonas aeruginosa clone C3 isolate PG-12X-03 by Etest method in presence of Tazobactam
[21] = tested on: Pseudomonas aeruginosa; test: Antibacterial activity against VIM-1 producing Pseudomonas aeruginosa clone A2 isolate NA-14X-32 by Etest method in presence of Tazobactam
[22] = tested on: Pseudomonas aeruginosa; test: Antibacterial activity against VIM-2 producing Pseudomonas aeruginosa clone B3 isolate CR-04X-14 by Etest method in presence of Tazobactam
[23] = tested on: Pseudomonas aeruginosa; test: Antibacterial activity against VIM-1 producing Pseudomonas aeruginosa clone F isolate RM-11X-09 by Etest method in presence of Tazobactam
[24] = tested on: Enterobacter cloacae; test: Antibacterial activity against VIM-1 producing Enterobacter cloacae isolate TO-16X-51 by Etest method in presence of Tazobactam
[25] = tested on: Pseudomonas aeruginosa; test: Antibacterial activity against VIM-1 producing Pseudomonas aeruginosa clone A3 isolate NA-14X-34 by Etest method
[26] = tested on: Pseudomonas aeruginosa; test: Antibacterial activity against IMP-13 producing Pseudomonas aeruginosa clone C2 isolate NA-14X-12 by Etest method
[27] = tested on: Pseudomonas aeruginosa; test: Antibacterial activity against VIM-2 producing Pseudomonas aeruginosa clone B3 isolate PV-05X-02 by Etest method in presence of Tazobactam
[28] = tested on: Pseudomonas aeruginosa; test: Antibacterial activity against VIM-2 producing Pseudomonas aeruginosa clone B3 isolate CR-04X-14 by Etest method
[29] = tested on: Pseudomonas aeruginosa; test: Antibacterial activity against VIM-2 producing Pseudomonas aeruginosa clone B3 isolate PV-05X-07 by Etest method
[30] = tested on: Pseudomonas aeruginosa; test: Antibacterial activity against VIM-1 producing Pseudomonas aeruginosa clone A3 isolate FG-17X-08 by Etest method in presence of Tazobactam
[31] = tested on: Pseudomonas aeruginosa; test: Antibacterial activity against metallo-beta-lactamase positive Pseudomonas aeruginosa assessed as percent susceptible isolates by Etest method in presence of Tazobactam
[32] = tested on: Pseudomonas aeruginosa; test: Antibacterial activity against VIM-1 producing Pseudomonas aeruginosa clone E isolate VA-06X-29 by Etest method
[33] = tested on: Pseudomonas aeruginosa; test: Antibacterial activity against VIM-2 producing Pseudomonas aeruginosa clone B2 isolate VA-06X-20 by Etest method
[34] = tested on: Pseudomonas aeruginosa; test: Antibacterial activity against IMP-13 producing Pseudomonas aeruginosa clone C2 isolate NA-14X-10 by Etest method in presence of Tazobactam
[35] = tested on: Pseudomonas aeruginosa; test: Antibacterial activity against IMP-13 producing Pseudomonas aeruginosa clone C2 isolate NA-14X-12 by Etest method in presence of Tazobactam
[36] = tested on: Pseudomonas aeruginosa; test: Antibacterial activity against VIM-1 producing Pseudomonas aeruginosa clone E isolate VA-06X-29 by Etest method in presence of Tazobactam
[37] = tested on: Pseudomonas aeruginosa; test: Antibacterial activity against VIM-1 producing Pseudomonas aeruginosa clone A1 isolate FG-17X-14 by Etest method
[38] = tested on: Pseudomonas aeruginosa; test: Antibacterial activity against IMP-13 producing Pseudomonas aeruginosa clone C1 isolate AV-13X-28 by Etest method in presence of Tazobactam
[39] = tested on: Pseudomonas aeruginosa; test: Antibacterial activity against VIM-1 producing Pseudomonas aeruginosa clone D2 isolate VA-06X-17 by Etest method
[40] = tested on: Pseudomonas aeruginosa; test: Antibacterial activity against VIM-1 producing Pseudomonas aeruginosa clone D3 isolate VA-06X-65 by Etest method in presence of Tazobactam
[41] = tested on: Pseudomonas aeruginosa; test: Antibacterial activity against IMP-13 producing Pseudomonas aeruginosa clone C2 isolate NA-14X-11 by Etest method
[42] = tested on: Pseudomonas aeruginosa; test: Antibacterial activity against VIM-1 producing Pseudomonas aeruginosa clone G isolate NA-14X-13 by Etest method in presence of Tazobactam
[43] = tested on: Pseudomonas aeruginosa; test: Antibacterial activity against VIM-1 producing Pseudomonas aeruginosa clone D4 isolate VA-06X-47 by Etest method in presence of Tazobactam
[44] = tested on: Pseudomonas aeruginosa; test: Antibacterial activity against VIM-1 producing Pseudomonas aeruginosa clone A2 isolate NA-14X-32 by Etest method
[45] = tested on: Pseudomonas aeruginosa; test: Antibacterial activity against VIM-2 producing Pseudomonas aeruginosa clone B2 isolate VA-06X-38 by Etest method
[46] = tested on: Pseudomonas aeruginosa; test: Antibacterial activity against VIM-2 producing Pseudomonas aeruginosa clone B1 isolate SS-09X-45 by Etest method
[47] = tested on: Pseudomonas aeruginosa; test: Antibacterial activity against VIM-1 producing Pseudomonas aeruginosa clone A2 isolate NA-14X-21 by Etest method in presence of Tazobactam
[48] = tested on: Pseudomonas aeruginosa; test: Antibacterial activity against VIM-1 producing Pseudomonas aeruginosa clone D isolate VA-06X-69 by Etest method in presence of Tazobactam
[49] = tested on: Pseudomonas aeruginosa; test: Antibacterial activity against VIM-1 producing Pseudomonas aeruginosa clone A2 isolate NA-14X-26 by Etest method
[50] = tested on: Pseudomonas aeruginosa; test: Antibacterial activity against VIM-2 producing Pseudomonas aeruginosa clone B2 isolate VA-06X-28 by Etest method in presence of Tazobactam
[51] = tested on: Pseudomonas aeruginosa; test: Antibacterial activity against VIM-2 producing Pseudomonas aeruginosa clone B1 isolate SS-09X-45 by Etest method in presence of Tazobactam
[52] = tested on: Pseudomonas aeruginosa; test: Antibacterial activity against IMP-13 producing Pseudomonas aeruginosa clone C3 isolate PG-12X-03 by Etest method
[53] = tested on: Pseudomonas aeruginosa; test: Antibacterial activity against VIM-2 producing Pseudomonas aeruginosa clone B2 isolate VA-06X-28 by Etest method
[54] = tested on: Pseudomonas aeruginosa; test: Antibacterial activity against VIM-1 producing Pseudomonas aeruginosa clone D4 isolate VA-06X-47 by Etest method
[55] = tested on: Pseudomonas aeruginosa; test: Antibacterial activity against VIM-1 producing Pseudomonas aeruginosa clone D1 isolate VA-06X-63 by Etest method in presence of Tazobactam
[56] = tested on: Pseudomonas aeruginosa; test: Antibacterial activity against VIM-1 producing Pseudomonas aeruginosa clone D isolate VA-06X-69 by Etest method
[57] = tested on: Pseudomonas aeruginosa; test: Antibacterial activity against VIM-2 producing Pseudomonas aeruginosa clone B3 isolate PV-05X-07 by Etest method in presence of Tazobactam
[58] = tested on: Pseudomonas aeruginosa; test: Antibacterial activity against VIM-2 producing Pseudomonas aeruginosa clone B3 isolate PV-05X-02 by Etest method
[59] = tested on: Pseudomonas aeruginosa; test: Antibacterial activity against VIM-1 producing Pseudomonas aeruginosa clone D2 isolate VA-06X-16 by Etest method
[60] = tested on: Pseudomonas aeruginosa; test: Antibacterial activity against VIM-1 producing Pseudomonas aeruginosa clone G isolate NA-14X-13 by Etest method
[61] = tested on: Pseudomonas aeruginosa; test: Antibacterial activity against VIM-1 producing Pseudomonas aeruginosa clone A1 isolate FG-17X-14 by Etest method in presence of Tazobactam

Structure (SMILES): CCN1CCN(C(=O)N[C@@H](C(=O)N[C@@H]2C(=O)N3[C@@H]2SC(C)(C)[C@@H]3C(=O)O)c2ccccc2)C(=O)C1=O [PIPERACILLIN]
- MIC [1]: > 128 µg/mL
- MIC [2]: > 128 µg/mL
- MIC [3]: > 128 µg/mL
- MIC [4]: 32 µg/mL
- MIC [5]: 16 µg/mL
- MIC [6]: > 128 µg/mL
- MIC [7]: 24 µg/mL (≈ 46.4 µM)
- MIC [8]: 48 µg/mL
- MIC [9]: > 128 µg/mL
- MIC [10]: > 128 µg/mL
- MIC [11]: > 128 µg/mL
- MIC [12]: 16 µg/mL
- MIC [13]: > 128 µg/mL
- MIC [14]: > 128 µg/mL
- MIC [15]: 16 µg/mL (≈ 30.9 µM)
- MIC [16]: > 128 µg/mL
- MIC [17]: > 128 µg/mL
- MIC [18]: > 128 µg/mL
- MIC [19]: 24 µg/mL (≈ 46.4 µM)
- MIC [20]: 16 µg/mL
- MIC [21]: > 128 µg/mL
- MIC [22]: > 128 µg/mL
- MIC [23]: > 128 µg/mL
- MIC [24]: > 128 µg/mL
- MIC [25]: > 128 µg/mL
- MIC [26]: 16 µg/mL (≈ 30.9 µM)
- MIC [27]: 32 µg/mL
- MIC [28]: > 128 µg/mL
- MIC [29]: 48 µg/mL (≈ 92.7 µM)
- MIC [30]: > 128 µg/mL
- Activity [31]: 39%
- MIC [32]: > 128 µg/mL
- MIC [33]: 64 µg/mL (≈ 124 µM)
- MIC [34]: 16 µg/mL
- MIC [35]: 16 µg/mL
- MIC [36]: > 128 µg/mL
- MIC [37]: > 128 µg/mL
- MIC [38]: 16 µg/mL
- MIC [39]: > 128 µg/mL
- MIC [40]: > 128 µg/mL
- MIC [41]: 16 µg/mL (≈ 30.9 µM)
- MIC [42]: > 128 µg/mL
- MIC [43]: > 128 µg/mL
- MIC [44]: > 128 µg/mL
- MIC [45]: 32 µg/mL (≈ 61.8 µM)
- MIC [46]: > 128 µg/mL
- MIC [47]: > 128 µg/mL
- MIC [48]: > 128 µg/mL
- MIC [49]: > 128 µg/mL
- MIC [50]: 48 µg/mL
- MIC [51]: > 128 µg/mL
- MIC [52]: 16 µg/mL (≈ 30.9 µM)
- MIC [53]: 64 µg/mL (≈ 124 µM)
- MIC [54]: > 128 µg/mL
- MIC [55]: > 128 µg/mL
- MIC [56]: > 128 µg/mL
- MIC [57]: 32 µg/mL
- MIC [58]: 48 µg/mL (≈ 92.7 µM)
- MIC [59]: > 128 µg/mL
- MIC [60]: > 128 µg/mL
- MIC [61]: > 128 µg/mL

Reference: ChEMBL document CHEMBL1275557, “First countrywide survey of acquired metallo-beta-lactamases in gram-negative pathogens in Italy” (2008)
